In publication PMC8557901 (Microbiology Spectrum, 2021):

How the values were obtained:
Type in all cases: cell-based
[1] = system: P. yoelii in HepG2-CD81 cells; assay: Hepatic stage of P. yoelii in HepG2-CD81 cells; conditions: Plasmodium yoelii; hepatic schizonts
Method: Hepatocytes were seeded into collagen-coated black 96-well plates and maintained at 37°C in 5% CO2 in complete medium. […] The infected culture plates were centrifuged for 10 min at 900 × g, allowing fast parasite sedimentation, and further incubated with serial dilutions of M1. […] DMSO was used as a negative control. The number, size, and shape of the parasites were determined using a CellInsight high-content screening platform equipped with Studio HCS software (ThermoFisher Scientific). The parasite immunostaining was done using an […]70 antibody raised in mice and a secondary anti-mouse antibody coupled to Alexa Fluor 488 ([43]). […] Thirty-seven images, representing more than 95% of the total bottom surface area of a culture well in 96-well plates, were captured for analysis. The custom script used for counting and measuring parasites first required identification of the objects based on a fluorescence intensity threshold. The object identity was then further validated based on size and morphological (shape) criteria. The presence of DAPI-associated fluorescence in the selected objects allowed their final selection and the rejection of false positives. […] The parasitic size reduction was calculated on the average object area using the total surface area of each selected object (μm^2).

[2] = Cytotoxicity on HepG2 cell line (MTT); conditions: human, HepG2 cells
Method: The evaluation of the cytotoxicity of the tested molecules on the HepG2 cell line was performed according to the method of Mosman ([42]) with slight modifications. […] Triplicate assays were performed for each sample. Each well was then examined under a microscope to detect possible precipitate formation before the medium was aspirated from the wells. An amount of 100 μl of MTT solution (0.5 mg/ml in medium without FBS) was then added to each well. […] After this time, the MTT solution was removed and DMSO (100 μl) was added to dissolve the resulting blue formazan crystals. Plates were shaken vigorously (700 rpm) for 10 min. The absorbance was measured at 570 nm with 630 nm as the reference wavelength using a Tecan Infinite F-200 microplate reader. DMSO was used as a blank and doxorubicin as a positive control. Cell viability was calculated as the percentage compared to the control (cells incubated without compound). […] CC50 values represent the mean values calculated from three independent experiments.

[3] = system: P. falciparum strain K1 in RBC; assay: In vitro chemosensitivity assay, blood stage P. falciparum K1 (SYBR green I); conditions: Plasmodium falciparum, K1; erythrocytic stage, 72 h; read-out: EC50 (μM) for P. falciparum strain K1 in RBC
Method: Maintenance in continuous culture was done as described previously by Trager and Jensen ([46]). Cultures were maintained in fresh A+ human erythrocytes (EFS [French Blood Bank]) at 2.5% hematocrit in complete medium (RPMI 1640 with 25 mM HEPES, 25 mM NaHCO3, 10% A+ human serum) at 37°C under a reduced-O2 atmosphere (gas mixture of 10% O2, 5% CO2, and 85% N2). Parasitemia was maintained daily between 1% and 3%. The P. falciparum drug susceptibility test was carried out by comparing quantities of DNA in treated and control cultures of parasites in human erythrocytes according to a SYBR green I fluorescence-based method ([50]) using a 96-well fluorescence plate reader. Compounds, previously dissolved in DMSO (final concentration, less than 0.5% vol/vol), were incubated in a total assay volume of 200 μl of synchronized culture suspension (2% hematocrit and 0.4% parasitemia) for 72 h in a humidified atmosphere (85% N2, 10% O2, and 5% CO2) at 37°C in 96-well flat-bottom plates. Duplicate assays were performed for each sample. After incubation, plates were frozen at −20°C for 24 h. Then, the frozen plates were thawed for 1 h at 37°C. Fifteen microliters of each sample was transferred to 96-well flat-bottom black plates (Greiner Bio-one) already containing 15 μl of the SYBR green I lysis buffer (2× SYBR green I, 20 mM Tris base, pH 7.5, 20 mM EDTA, 0.008% [wt/vol] saponin, 0.08% [wt/vol] Triton X-100). […] Plates were incubated for 15 min at 37°C and then read on a Tecan Infinite F-200 spectrophotometer with excitation and emission wavelengths at 485 and 535 nm, respectively. […] EC50K1 values represent the mean values calculated from three independent experiments.

SMILES | EC50 [1] [µM] | CC50 at 72 h [2] [µM] | EC50 [3] [µM]
O=C1C(O)=C([C@H]2CC[C@H](c3ccc(Cl)cc3)CC2)C(=O)c2ccccc21 [Atovaquone, reference compound] | 0.003 | > 15.6 | 0.001
CC(C)(C)Nc1nc2cc(-c3ccc(C(=O)O)cc3)sc2c(=O)[nH]1 [Metabolite 10, 4-(2-(tert-Butylamino)-4-oxo-3,4-dihydrothieno[3,2-d]pyrimidin-6-yl)benzoic acid] | > 10 | > 10 | > 10
COc1cccc2c1C(=O)c1c(O)c3c(c(O)c1C2=O)C[C@@](O)(C(=O)CO)C[C@@H]3O[C@H]1C[C@H](N)[C@H](O)[C@H](C)O1 [Doxorubicin, reference compound] |  | 0.2 | 
C[C@H]1c2cccc(O)c2C(=O)C2=C(O)[C@]3(O)C(=O)C(C(N)=O)=C(O)[C@@H](N(C)C)[C@@H]3[C@@H](O)[C@@H]21 [Doxycycline, reference compound] |  | 20 | 6
